Laboratory results taken from patent publication US20040248937A1, “Substituted phenylalkanoic acids for the treatment of diabetes” (The Institute for Pharmaceutical Discovery LLC, priority 2003, published 2004).

System: insulin resistant rats
Experiment: Euglycemic insulin clamp in High Fat Diet fed insulin resistant rats after a single oral dose
Assay type: in vivo, Male Wistar rats
Details: for EGP (endogenous glucose production) / GIR (glucose infusion rate) / GU (glucose utilization): 4 hrs before clamp, mean ± sem
Protocol: Male Wistar rats were fed a High Fat Diet for at least 4 weeks. Jugular vein and carotid artery cannulations were performed one week prior to the clamp experiment. Test compound (Compound 15) is administered p.o. 4 hrs before the clamp and labeled 3-3H-glucose is infused 1 hr prior to calculated endogenous glucose production (EGP). Insulin is infused at a rate of 0.75 U/kg/hr raising plasma insulin levels to […]. To maintain euglycemia (80 mg/dl), unlabeled glucose is infused at a variable rate and adjusted every 10 minutes.

For `CCc1ccc(-c2sc(NC(=O)c3ccc(S(=O)(=O)N[C@@H](Cc4ccccc4)C(=O)O)cc3)nc2-c2ccc(Cl)cc2)cc1` [Compound 15, N-{[4-({[4-(4-chlorophenyl)-5-(4-ethylphenyl)-1,3-thiazol-2-yl]amino}carbonyl)phenyl]sulfonyl}phenylalanine], the “EGP (endogenous glucose production)” value (10 mg/kg single oral dose) was 1.4 ± 1.8 mg/kg/min, the “GIR (glucose infusion rate)” value (10 mg/kg single oral dose) was 29.6 ± 5.0 mg/kg/min and the “GU (glucose utilization)” value (10 mg/kg single oral dose) was 28.3 ± 6.6 mg/kg/min. The “effect on endogenous glucose production (EGP)” value (30 mg/kg p.o., result in words) was “enhanced suppression”, the “effect on glucose infusion rate (GIR)” value (30 mg/kg p.o., result in words) was “significantly increased” and the “effect on glucose utilization (GU)” value (30 mg/kg p.o., result in words) was “augmented stimulation”. For the same molecule, the “EGP (endogenous glucose production)” value (30 mg/kg single oral dose) was 0.16 ± 0.5 mg/kg/min, the “GIR (glucose infusion rate)” value (30 mg/kg single oral dose) was 30.8 ± 2.2 mg/kg/min and the “GU (glucose utilization)” value (30 mg/kg single oral dose) was 30.7 ± 2.00 mg/kg/min. The “EGP (endogenous glucose production)” value (60 mg/kg single oral dose) was 0.77 ± 0.4 mg/kg/min, the “GIR (glucose infusion rate)” value (60 mg/kg single oral dose) was 38.0 ± 2.2 mg/kg/min and the “GU (glucose utilization)” value (60 mg/kg single oral dose) was 37.3 ± 2.3 mg/kg/min.
